Experimental data published in ChEMBL document CHEMBL4732043, “The discovery of novel indazole derivatives as tubulin colchicine site binding agents that displayed potent antitumor activity both in vitro and in vivo” (Eur J Med Chem, 2020).

Key:
[1] = test system: A549; assay: Antiproliferative activity against human A549 cells assessed as cell viability after 72 hrs by MTT assay; assay type: functional
[2] = test system: HCT-116; assay: Antiproliferative activity against human HCT-116 cells assessed as cell viability after 72 hrs by MTT assay; assay type: functional
[3] = test system: HepG2; assay: Antiproliferative activity against human HepG2 cells assessed as cell viability after 72 hrs by MTT assay; assay type: functional
[4] = test system: HCT-116; assay: Antitumor activity against human HCT-116 cells xenografted in nude mouse assessed as inhibition of tumor growth at 25 mg/kg, po for 21 days; assay type: functional; settings: HCT-116, po, 504 h, time 21 day, read-out: TGI
[5] = Toxicity in nude mouse xenografted with human HCT-116 cells assessed as change in body weight at 25 mg/kg, po for 21 days (reference value: 2.2%); assay type: organism-based; settings: in vivo, 504 h, time 21 day
[6] = Toxicity in nude mouse xenografted with human HCT-116 cells assessed as change in body weight at 12.5 mg/kg, po for 21 days (reference value: 2.2%); assay type: organism-based; settings: in vivo, 504 h, time 21 day
[7] = Cytotoxicity against HUVEC assessed as cell viability after 72 hrs by MTT assay; assay type: cell-based; settings: human, HUVEC cells
[8] = test system: HCT-116; assay: Induction of apoptosis in human HCT-116 cells assessed as viable cells at 40 nM after 24 hrs by annexinV and 7-ADD staining based flow cytometry (reference value: 96.7%); assay type: functional; settings: read-out: Activity
[9] = test system: HCT-116; assay: Antitumor activity against human HCT-116 cells xenografted in nude mouse assessed as inhibition of tumor growth at 12.5 mg/kg, po for 21 days; assay type: functional; settings: HCT-116, po, 504 h, time 21 day, read-out: TGI
[10] = test system: HCT-116; assay: Induction of cell cycle arrest in human HCT-116 cells assessed as accumulation of cells at G2/M phase at 10 nM after 24 hrs by flow cytometry (reference value: 16.35%); assay type: functional
[11] = test system: HCT-116; assay: Induction of apoptosis in human HCT-116 cells assessed as necrotic cells at 40 nM after 24 hrs by annexinV and 7-ADD staining based flow cytometry (reference value: 0.9%); assay type: functional
[12] = test system: HCT-116; assay: Induction of apoptosis in human HCT-116 cells assessed as necrotic cells at 20 nM after 24 hrs by annexinV and 7-ADD staining based flow cytometry (reference value: 0.9%); assay type: functional
[13] = molecular target: T1, Tubulin (Homo sapiens) (UniProt P68371+Q9H4B7+P0DPH7+P68366+Q13509+Q71U36+P04350+Q3ZCM7+P07437+P68363+Q9BQE3+Q6PEY2+Q13885+Q9BVA1+Q9BUF5); assay: Inhibition of tubulin polymerization in human HCT-116 cells assessed as microtubule network polymerization after 24 hrs by immunofluorescence analysis; assay type: cell-based; settings: dose 20-40 nM
[14] = test system: HCT-116; assay: Induction of apoptosis in human HCT-116 cells assessed as late apoptotic cells at 20 nM after 24 hrs by annexinV and 7-ADD staining based flow cytometry (reference value: 1.5%); assay type: functional
[15] = test system: HCT-116; assay: Induction of cell cycle arrest in human HCT-116 cells assessed as accumulation of cells at S phase at 10 nM after 24 hrs by flow cytometry (reference value: 43.12%); assay type: functional
[16] = molecular target: T1, Tubulin (Homo sapiens); assay: Inhibition of tubulin polymerization in human HCT-116 cells assessed as microtubule spindle formation after 24 hrs by immunofluorescence analysis; assay type: cell-based; settings: dose 20-40 nM
[17] = test system: HCT-116; assay: Induction of cell cycle arrest in human HCT-116 cells assessed as accumulation of cells at S phase at 20 nM after 24 hrs by flow cytometry (reference value: 43.12%); assay type: functional
[18] = test system: HCT-116; assay: Induction of apoptosis in human HCT-116 cells assessed as early apoptotic cells at 40 nM after 24 hrs by annexinV and 7-ADD staining based flow cytometry (reference value: 0.9%); assay type: functional
[19] = molecular target: Tubulin beta (Homo sapiens) (UniProt P68371+Q9H4B7+Q13509+P04350+Q3ZCM7+P07437+Q13885+Q9BVA1+Q9BUF5+A6NNZ2); assay: Inhibition of N,N'-Ethylenebis(iodoacetamide) binding to beta-tubulin in human HCT-116 cells assessed as reduction in EBI/beta-tubulin adduct formation preincubated for 2 hrs followed by EBI addition and measured after 1.5 hrs by Western blot analysis; assay type: cell-based; settings: dose 0.2-25 µM, time 3.5 hrs
[20] = molecular target: Proto-oncogene tyrosine-protein kinase Src (Homo sapiens) (UniProt P12931); assay: Inhibition of human recombinant c-SRC (1-530 aa) at 10 uM by radiometric assay
Proto-oncogene tyrosine-protein kinase Src (Homo sapiens), sequence (P12931 2-536 limits assumed): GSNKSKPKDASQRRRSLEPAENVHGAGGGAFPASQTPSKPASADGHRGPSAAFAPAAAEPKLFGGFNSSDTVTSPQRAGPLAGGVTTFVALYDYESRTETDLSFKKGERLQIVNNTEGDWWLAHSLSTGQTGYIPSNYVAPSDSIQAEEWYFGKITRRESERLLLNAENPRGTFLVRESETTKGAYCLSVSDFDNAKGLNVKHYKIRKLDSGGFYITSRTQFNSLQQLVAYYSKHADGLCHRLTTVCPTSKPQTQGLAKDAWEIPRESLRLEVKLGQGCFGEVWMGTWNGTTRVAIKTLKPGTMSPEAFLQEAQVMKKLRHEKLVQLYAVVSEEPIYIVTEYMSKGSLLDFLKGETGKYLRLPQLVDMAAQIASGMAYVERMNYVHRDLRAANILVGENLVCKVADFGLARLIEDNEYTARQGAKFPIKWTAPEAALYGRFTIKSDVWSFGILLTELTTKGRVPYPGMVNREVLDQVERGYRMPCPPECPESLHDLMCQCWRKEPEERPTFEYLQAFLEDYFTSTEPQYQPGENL

[21] = test system: SW-620; assay: Antiproliferative activity against human SW-620 cells assessed as cell viability after 72 hrs by MTT assay; assay type: functional
[22] = molecular target: Vascular endothelial growth factor receptor 2 (Homo sapiens) (UniProt P35968); assay: Inhibition of human KDR expressed in mammalian expression system at 10 uM by radiometric assay
Vascular endothelial growth factor receptor 2 (Homo sapiens), sequence (P35968 whole entry): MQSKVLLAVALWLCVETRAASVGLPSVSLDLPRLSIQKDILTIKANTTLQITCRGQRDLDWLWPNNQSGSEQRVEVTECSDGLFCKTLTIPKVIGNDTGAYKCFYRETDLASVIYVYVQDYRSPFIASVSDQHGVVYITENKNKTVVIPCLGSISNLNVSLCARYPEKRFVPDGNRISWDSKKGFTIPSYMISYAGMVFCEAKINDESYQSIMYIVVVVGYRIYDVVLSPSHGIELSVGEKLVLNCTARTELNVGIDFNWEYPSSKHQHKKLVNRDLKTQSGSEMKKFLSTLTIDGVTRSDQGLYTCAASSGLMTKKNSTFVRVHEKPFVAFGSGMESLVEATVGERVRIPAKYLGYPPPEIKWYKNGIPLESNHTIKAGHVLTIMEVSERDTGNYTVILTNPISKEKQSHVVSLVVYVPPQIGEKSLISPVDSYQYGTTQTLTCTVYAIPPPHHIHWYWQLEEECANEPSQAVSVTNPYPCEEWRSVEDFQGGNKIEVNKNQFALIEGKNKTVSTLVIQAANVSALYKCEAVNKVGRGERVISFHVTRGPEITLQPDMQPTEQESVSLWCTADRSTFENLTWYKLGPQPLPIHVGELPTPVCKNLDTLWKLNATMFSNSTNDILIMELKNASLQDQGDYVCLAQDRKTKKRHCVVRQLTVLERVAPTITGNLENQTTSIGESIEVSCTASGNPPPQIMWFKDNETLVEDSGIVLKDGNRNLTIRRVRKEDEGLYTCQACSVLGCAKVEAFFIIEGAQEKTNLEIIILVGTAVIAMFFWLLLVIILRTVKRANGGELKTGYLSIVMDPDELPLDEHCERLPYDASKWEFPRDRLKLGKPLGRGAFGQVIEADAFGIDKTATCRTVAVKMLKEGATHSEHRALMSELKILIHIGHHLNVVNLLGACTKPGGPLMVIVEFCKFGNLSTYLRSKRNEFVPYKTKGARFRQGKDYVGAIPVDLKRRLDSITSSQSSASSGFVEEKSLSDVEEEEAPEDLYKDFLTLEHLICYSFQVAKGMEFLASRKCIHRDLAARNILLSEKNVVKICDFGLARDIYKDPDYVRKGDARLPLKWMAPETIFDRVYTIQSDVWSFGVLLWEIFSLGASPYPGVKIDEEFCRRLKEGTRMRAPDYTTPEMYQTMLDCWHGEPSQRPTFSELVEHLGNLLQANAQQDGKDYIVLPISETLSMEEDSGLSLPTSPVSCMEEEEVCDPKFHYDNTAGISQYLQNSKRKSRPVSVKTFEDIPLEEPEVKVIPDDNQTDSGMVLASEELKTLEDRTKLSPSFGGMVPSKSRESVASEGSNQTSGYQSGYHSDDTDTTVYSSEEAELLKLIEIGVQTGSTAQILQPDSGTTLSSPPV

[23] = test system: HT-29; assay: Antiproliferative activity against human HT-29 cells assessed as cell viability after 72 hrs by MTT assay; assay type: functional
[24] = test system: HCT-116; assay: Induction of cell cycle arrest in human HCT-116 cells assessed as accumulation of cells at G2/M phase at 20 nM after 24 hrs by flow cytometry (reference value: 16.35%); assay type: functional
[25] = test system: HCT-116; assay: Induction of apoptosis in human HCT-116 cells assessed as necrotic cells at 10 nM after 24 hrs by annexinV and 7-ADD staining based flow cytometry (reference value: 0.9%); assay type: functional
[26] = test system: HCT-116; assay: Induction of cell cycle arrest in human HCT-116 cells assessed as accumulation of cells at G1 phase at 20 nM after 24 hrs by flow cytometry (reference value: 40.5%); assay type: functional
[27] = molecular target: Protein kinase C alpha type (Homo sapiens) (UniProt P17252); assay: Inhibition of human recombinant PKCalpha at 10 uM by radiometric assay
[28] = test system: HCT-116; assay: Induction of apoptosis in human HCT-116 cells assessed as early apoptotic cells at 10 nM after 24 hrs by annexinV and 7-ADD staining based flow cytometry (reference value: 0.9%); assay type: functional
[29] = test system: HCT-116; assay: Induction of apoptosis in human HCT-116 cells assessed as early apoptotic cells at 20 nM after 24 hrs by annexinV and 7-ADD staining based flow cytometry (reference value: 0.9%); assay type: functional
[30] = test system: HCT-116; assay: Induction of apoptosis in human HCT-116 cells assessed as late apoptotic cells at 40 nM after 24 hrs by annexinV and 7-ADD staining based flow cytometry (reference value: 1.5%); assay type: functional
[31] = test system: HCT-116; assay: Induction of cell cycle arrest in human HCT-116 cells assessed as accumulation of cells at G1 phase at 10 nM after 24 hrs by flow cytometry (reference value: 40.5%); assay type: functional
[32] = test system: HCT-116; assay: Induction of apoptosis in human HCT-116 cells assessed as viable cells at 20 nM after 24 hrs by annexinV and 7-ADD staining based flow cytometry (reference value: 96.7%); assay type: functional; settings: read-out: Activity
[33] = test system: HCT-116; assay: Induction of apoptosis in human HCT-116 cells assessed as late apoptotic cells at 10 nM after 24 hrs by annexinV and 7-ADD staining based flow cytometry (reference value: 1.5%); assay type: functional
[34] = test system: 1-87 tumor cell line; assay: (§1) Inhibition of porcine brain tubulin polymerization by fluorescence based assay; settings: Sus scrofa domesticus
[35] = as §1; assay type: cell-based, Sus scrofa domesticus, 1-87 tumor cell line
[36] = molecular target: T1, Tubulin (Homo sapiens); assay: Inhibition of tubulin polymerization in human HCT-116 cells assessed as complete microtubule depolymerization at 40 nM after 24 hrs by immunofluorescence analysis; assay type: cell-based
[37] = test system: HCT-116; assay: Induction of apoptosis in human HCT-116 cells assessed as viable cells at 10 nM after 24 hrs by annexinV and 7-ADD staining based flow cytometry (reference value: 96.7%); assay type: functional; settings: read-out: Activity

COc1ccc(Nc2n[nH]c3cc(C)ccc23)cc1OC
GI50 [1]: 990 nM | GI50 [2]: 2260 nM | GI50 [3]: 630 nM

O=c1[nH]cc(F)c(=O)[nH]1 [FLUOROURACIL]
inhibition in vivo at 25 mg/kg [4]: 45.5% | Activity [5]: 21.8%

COc1ccc(Nc2n[nH]c3ccc(C)cc23)cc1OC
GI50 [1]: > 25000 nM | GI50 [2]: 22300 nM | GI50 [3]: > 25000 nM

COc1cc(Nc2n[nH]c3c(C)cccc23)cc(OC)c1OC
GI50 [1]: 4300 nM | GI50 [2]: 4600 nM | GI50 [3]: 5400 nM

COc1cc(Nc2n[nH]c3ccc(C)cc23)cc(OC)c1OC
GI50 [1]: 1100 nM | GI50 [2]: 2600 nM | GI50 [3]: 4000 nM

COc1ccc2c(Nc3ccc4c(c3)OCO4)n[nH]c2c1
GI50 [1]: > 25000 nM | GI50 [2]: > 25000 nM | GI50 [3]: > 25000 nM

COc1ccc(Nc2n[nH]c3cc(F)ccc23)cc1OC
GI50 [1]: > 25000 nM | GI50 [2]: 16700 nM | GI50 [3]: > 25000 nM

COc1ccc2c(Nc3ccc(OC)c(OC)c3)n[nH]c2c1
GI50 [1]: > 25000 nM | GI50 [2]: 14600 nM | GI50 [3]: > 25000 nM

COc1ccc(/C=C\c2cc(OC)c(OC)c(OC)c2)cc1O [COMBRETASTATIN A4]
GI50 [1]: 167 nM | GI50 [2]: 6 nM | GI50 [3]: 2 nM

COc1cc(Nc2n[nH]c3cc(OC)ccc23)cc(OC)c1
GI50 [1]: 510 nM | GI50 [2]: 960 nM | GI50 [3]: 780 nM

COc1ccc2c(Nc3cc(OC)c(OC)c(OC)c3)n[nH]c2c1
Activity [6]: 2.8% | GI50 at 72 h [7]: > 25000 nM | viability at 0.04 µM [8]: 66.2% | inhibition in vivo at 12.5 mg/kg [9]: 34.3% | Activity [10]: 21.57% | GI50 [1]: 65 nM | Activity [11]: 3.5% | Activity [12]: 2.6% | inhibition [13]: Dose-dependent effect | Activity [14]: 13.1% | Activity [15]: 41.56% | inhibition [16]: Dose-dependent effect | Activity [17]: 6.04% | Activity [18]: 12.8% | inhibition [19]: Dose-dependent effect | inhibition [20]: 35% | GI50 [21]: 24 nM | inhibition [22]: 66% | GI50 [23]: 96 nM | Activity [24]: 87.12% | Activity [25]: 3.1% | inhibition in vivo at 25 mg/kg [4]: 59.9% | GI50 [2]: 41 nM | Activity [26]: 6.85% | inhibition [27]: 24% | Activity [28]: 5.1% | GI50 [3]: 53 nM | Activity [29]: 5.2% | Activity [30]: 17.6% | Activity [31]: 36.86% | viability at 0.02 µM [32]: 79.2% | Activity [33]: 10.1% | Activity [5]: 1.1% | inhibition [34]: Dose-dependent effect | IC50 [35]: 4770 nM | inhibition [36]: 100% | viability at 0.01 µM [37]: 81.8%

Cc1ccc2c(Nc3ccc4c(c3)OCO4)n[nH]c2c1
GI50 [1]: > 25000 nM | GI50 [2]: 23700 nM | GI50 [3]: > 25000 nM
